≈ marks a conversion by molar mass, not a printed value. Like-named read-outs stand apart in the source and are kept apart here.
Columns and labels:
[1] = in vitro; type: in vitro ADME, human; conditions: for half-life: read-out: t1/2 in human microsomes
Method: (§1) Protocol S6. Microsomal fraction stability experimental procedure.
(§2) Pooled mouse and human liver microsomes are purchased from Xenotech. Microsomes (final protein concentration 0.5 mg/mL, MgCl2 (final concentration = 5 mM) and test compound (final substrate concentration = 0.5 µM; final DMSO concentration = 0.5%) in 0.1M phosphate buffer pH 7.4 were pre-incubated at 37°C prior to the addition of NADPH (final concentration = 1 mM) to initiate the reaction. The final incubation volume was 600 µL. A control incubation was included for each compound tested where 0.1 M phosphate buffer pH 7.4 is added instead of NADPH (minus NADPH). One control compound was included with each species. All incubations were performed singularly for each test compound. Each compound was incubated for 30 minutes and samples (90 µL) of incubate were taken at 0, 5, 15, 20 and 30 min. The control (minus NADPH) was sampled at 30 min only. The reactions were stopped by the addition of sample to 200 µL Acetonitrile:Methanol 3:1 containing internal standard. The terminated samples were centrifuged at 2.500 rpm for 20 min at 4°C to precipitate the protein.
(§3) Quantitative Analysis: following protein precipitation, the samples were analyzed using specific […]
(§4) Data Analysis: from a plot of ln peak area ratio (compound peak area/internal standard peak area) against time, the gradient of the line was determined. Subsequently, half-life and intrinsic clearance were calculated using the equations below:
(§5) Elimination rate constant (k) = (- gradient)
(§6) Half life (t1/2) (min) = […]
(§7) Intrinsic Clearance (CLint) (mL/min/g protein) = […] where V=Incubation volume mL/g microsomal protein.

[2] = system: HepG2 cells
[3] = at 1 µM
[4] = in vitro; type: in vitro ADME, mouse; conditions: for Cli mouse: 0.5 µM; for Cli mouse / half-life: pH 7.4; for half-life: read-out: t1/2 in mouse microsomes
Method: as §1, §2, §3, §4, §5, §6, §7

[5] = biological target: human serum albumin (HSA) (Homo sapiens, UniProt P02768); type: in vitro ADME
Method: Standard physical chemical property determination methods were used. Please see the Supporting Information for details.
Protocol S4. Determination of compounds binding to human serum albumin (HSA).
The determination of compounds binding to human serum albumin (HSA) was carried out by retention time measurements using immobilized HSA HPLC columns obtained from Chiral Technologies Ltd, France. The column dimensions were 50x3 mm. The mobile phase was 50 mM ammonium acetate buffer pH 7.4 and HPLC grade 2-propanol. HPLC Method: flow rate 1.8 ml/min applying 2.5 min 2-propanol gradient up to 30%. From 2.5 min to 4.5 min the 2-propanol concentration in the mobile phase was kept at 30%. From 4.5 min to 4.6 min, the 2-propanol concentration was decreased to 0% and kept like that until the end of the gradient run which was 6 min. A calibration set of compounds was first analyzed for which plasma protein binding data were available: Warfarin, Nizatidine, Bromazepam, Carbamazepine, Budesonide, Nicardipine, Indomethacine, Piroxicam, Naproxen. The calculation of the HSA binding data expressed as %HSA was carried out as described previously.

[6] = system: Vero cells
[7] = system: M. tuberculosis H37Rv bacilli; conditions: cited from earlier work
[8] = in vitro; conditions: African green monkey
[9] = system: M. tuberculosis H37Rv; test: microbe, parasite or virus in culture; type: cell-based; conditions: Mycobacterium tuberculosis, aerobic conditions
[10] = physchem
[11] = not given; remark: listed apart in the source
[12] = in vitro; conditions: plasma, pH 7.4
[13] = in vivo; conditions: female, C57BL/6, mouse, po
[14] = system: H37Rv; parameters: species or system mice; conditions: mouse, in vivo, po

Chain of human serum albumin (HSA) (P02768 25-609): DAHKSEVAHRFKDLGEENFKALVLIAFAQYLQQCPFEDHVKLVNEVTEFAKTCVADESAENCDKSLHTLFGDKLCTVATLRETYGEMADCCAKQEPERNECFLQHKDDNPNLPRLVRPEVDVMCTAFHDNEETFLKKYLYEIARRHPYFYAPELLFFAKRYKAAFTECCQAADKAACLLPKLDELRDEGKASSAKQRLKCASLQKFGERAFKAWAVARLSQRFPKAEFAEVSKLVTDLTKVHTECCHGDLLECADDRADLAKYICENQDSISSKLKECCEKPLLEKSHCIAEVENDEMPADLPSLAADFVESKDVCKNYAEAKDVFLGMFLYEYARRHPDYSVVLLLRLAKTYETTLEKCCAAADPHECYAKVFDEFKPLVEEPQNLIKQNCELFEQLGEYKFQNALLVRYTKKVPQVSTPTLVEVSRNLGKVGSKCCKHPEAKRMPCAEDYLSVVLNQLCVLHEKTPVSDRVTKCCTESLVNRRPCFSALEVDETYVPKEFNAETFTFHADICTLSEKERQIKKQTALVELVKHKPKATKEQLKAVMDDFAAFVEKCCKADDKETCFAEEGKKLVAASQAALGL

Molecule	CC50 at 72 h [8]	Cli human ([1]; human, 0.5 µM, pH 7.4)	half-life ([1]; pH 7.4, human microsomes)	MIC [9]	Tox50, cytotoxicity in HepG2 cells ([2]; human, 48 h)	chromatographic logD ([10]; pH 2)	chromatographic logD ([10]; pH 7.4)	chromatographic logD ([10]; pH 10.5)	melting point [11]	Cli mouse [4]	half-life ([4]; mouse microsomes)	fraction unbound at 1 µM [12]	HSA (%) binding ([5]; human, pH 7.4)	also measured
CCCc1ccc(-n2c(-c3ccc(OC)cc3)cc(CN3CCOCC3)c2C)cc1 [Compound 24]														CHILogD pH 2 (pH 2): 1.46; CHILogD pH 7.4 (pH 7.4): 4.52; CHILogD pH 10.5 (pH 10.5): 4.97; Cli human [1]: <0.5 mL/min/g; t1/2 in human microsomes ([1]; human microsomes): >30 min; Tox50, cytotoxicity in HepG2 cells [2]: 2.1 µM; PPB (%) [3]: >99.9%; t1/2 in mouse microsomes ([4]; mouse microsomes): >30 min; HSA (%) binding [5]: 97.43%; CC50 [6]: 31.2 µM
CC(C)=CCC/C(C)=C/CNCCNC1C2CC3CC(C2)CC1C3 (stereo not drawn) [SQ109]														activity against M. tuberculosis H37Rv bacilli in anaerobic models [7]: neither AU1235 nor SQ109 gave detectable activity
CCc1ccc(-n2c(-c3ccc(Cl)cc3)cc(CN3CCOCC3)c2C)cc1 [Compound 15, 2-Methyl-3-[(morpholin-4-yl)-methyl]-5-[4-(chloro)phenyl]-1-[4-(ethyl)phenyl]-1H-pyrrole]	170 µM	0.9 ± 0 mL/min/g	> 30 min	0.6 µM (≈ 0.237 µg/mL)	17.8 µM	1.54	5.01	5.36	102 °C	4.0 ± 0.1 mL/min/g	18.5 min	< 0.001	98.03%	
Cc1c(CN2CCOCC2)cc(-c2ccc(C(C)C)cc2)n1-c1ccc(F)cc1 [Compound 9, 2-Methyl-3-[(morpholin-4-yl)-methyl]-5-[4-(i-propyl)phenyl]-1-[4-(fluoro)phenyl]-1H-pyrrole]	50.1 µM	<0.5 mL/min/g	> 30 min	0.12 µM (≈ 0.0471 µg/mL)	15.3 µM	1.47	4.57	4.95	120 °C		> 30 min	< 0.001	97.71%	AUC(0-inf) ([13]; 50 mg/kg): 11.6 µM·h; Cmax ([13]; 50 mg/kg): 1.62 µM; Tmax ([13]; 50 mg/kg): 60 min; half-life ([13]; 50 mg/kg): 60 min; ED99 (dose that reduces 2 logs bacterial burden in the lungs of mice; 95% confidence interval in parenthesis) [14]: 49 (43–54) mg/kg
Cc1ccc(-c2cc(CN3CCOCC3)c(C)n2-c2ccc(Cl)cc2)cc1 [Compound 10, 2-Methyl-3-[(morpholin-4-yl)-methyl]-5-[4-(methyl)phenyl]-1-[4-(chloro)phenyl]-1H-pyrrole]	179 µM	<0.5 mL/min/g	> 30 min	0.6 µM (≈ 0.229 µg/mL)	25 µM	1.3	4.4	4.78	130 °C	2.6 ± 0.1 mL/min/g	25.7 min	0.002	97.69%	
Cc1c(CN2CCOCC2)cc(-c2ccc(C(C)C)cc2)n1-c1ccc(Cl)cc1 [Compound 13, 2-Methyl-3-[(morpholin-4-yl)-methyl]-5-[4-(i-propyl)phenyl]-1-[4-(chloro)phenyl]-1H-pyrrole]	241 µM	0.71 mL/min/g	> 30 min	0.6 µM (≈ 0.245 µg/mL)	10.0 µM	1.56	5.13	5.45	135 °C		> 30 min	< 0.001	97.94%	
CO[C@H]1/C=C/O[C@@]2(C)Oc3c(C)c(O)c4c(O)c(c(/C=N/N5CCN(C)CC5)c(O)c4c3C2=O)NC(=O)/C(C)=C\C=C\[C@H](C)[C@H](O)[C@@H](C)[C@@H](O)[C@@H](C)[C@H](OC(C)=O)[C@@H]1C [Rifampin, reference compound]	207 µM													AUC(0-inf) ([13]; 10.4 mg/kg): 102 µM·h; ED99 (dose that reduces 2 logs bacterial burden in the lungs of mice; 95% confidence interval in parenthesis) [14]: 9.8 (9.0–11) mg/kg
COc1ccc(-n2c(-c3ccc(C(C)C)cc3)cc(CN3CCOCC3)c2C)cc1 [Compound 21, 2-Methyl-3-[(morpholin-4-yl)-methyl]-5-[4-(i-propyl)phenyl]-1-[4-(methoxy)phenyl]-1H-pyrrole]	28.2 µM	2.15 mL/min/g	> 30 min	0.3 µM (≈ 0.121 µg/mL)	14.1 µM	1.35	4.32	4.81	109 °C	6.07 mL/min/g	10.7 min	0.001	97.07%	
CSc1ccc(-c2cc(CN3CCOCC3)c(C)n2-c2ccc(F)cc2)cc1 [Compound 7, 2-Methyl-3-[(morpholin-4-yl)-methyl]-5-[4-(methylthio)phenyl]-1-[4-(fluoro)phenyl]-1H-pyrrole]	44.3 µM	0.56 mL/min/g	> 30 min	0.6 µM (≈ 0.238 µg/mL)	32.9 µM	1.13	3.82	4.24	134 °C	7.30 mL/min/g	9.27 min	0.004	97.00%	
COc1ccc(-c2cc(CN3CCOCC3)c(C)n2-c2ccc(C)cc2)cc1 [Compound 22, 2-Methyl-3-[(morpholin-4-yl)-methyl]-5-[4-(methoxy)phenyl]-1-[4-(methyl)phenyl]-1H-pyrrole]	50.1 µM	1.14 mL/min/g	> 30 min	0.6 µM (≈ 0.226 µg/mL)	11.3 µM	1.02	3.57	4.11	115 °C	12.62 mL/min/g	< 5 min	0.008	95.64%	
AU1235														activity against M. tuberculosis H37Rv bacilli in anaerobic models ([7]; ref [17]-[19]): neither AU1235 nor SQ109 gave detectable activity
CCc1ccc(-c2cc(CN3CCOCC3)c(C)n2-c2ccc(Cl)cc2)cc1 [Compound 11, 2-Methyl-3-[(morpholin-4-yl)-methyl]-5-[4-(ethyl)phenyl]-1-[4-(chloro)phenyl]-1H-pyrrole]	> 256 µM	0.52 mL/min/g	> 30 min	0.2 µM (≈ 0.079 µg/mL)	8.8 µM	1.42	4.77	5.16	134 °C	2.83 mL/min/g	25 min	< 0.001	97.74%	
CCc1ccc(-n2c(-c3ccc(OC)cc3)cc(CN3CCOCC3)c2C)cc1 [Compound 23, 2-Methyl-3-[(morpholin-4-yl)-methyl]-5-[4-(methoxy)phenyl]-1-[4-(ethyl)phenyl]-1H-pyrrole]	16 µM	<0.5 mL/min/g	> 30 min	0.3 µM (≈ 0.117 µg/mL)	14.7 µM	1.24	4.05	4.52	72 °C	7.8 ± 0.5 mL/min/g	< 5 min	0.002	96.79%	

Reference: publication PMC3578785, “Improved BM212 MmpL3 Inhibitor Analogue Shows Efficacy in Acute Murine Model of Tuberculosis Infection” (PLoS ONE, 2013)
